Measured values from publication PMC6929626, “PET/MRI enables simultaneous in vivo quantification of β-cell mass and function” (Theranostics, 2020).

Test system: VDCC
Test: Manganese-enhanced MRI (T1 maps, R1, estimated [Mn]) of pancreas and insulinomas
Format: in vivo, mice
Conditions: for [Mn]: estimated from (R1post-R1pre)/r1
Method: In brief, mice were fasted for 4-6 hours and anesthetized with 1-2% isoflurane/O2 gas mixture (Vetland, Louisville, KY, USA) before the in vivo measurements. A tail vein catheter was initially placed for the co-injection of 50 µL of tracer solution (0.12 MBq/g bodyweight) and 50 µL of MnCl2:Bicine solution (75 µmol/kg body weight). The animals were placed in supine position on the bed in order to attenuate the motion artifacts rising from the respiratory movements. Thus, [^64Cu]Ex4 and MnCl2 solution were co-injected i.v. as a bolus a few seconds after the beginning of dynamic PET measurements. An additional i.v. injection of glucose solution (1.5 g/kg) was performed five minutes after the PET tracer and MR contrast agent injection to enhance the metabolic uptake of Mn by the pancreas. PET quantification was performed by 20-min static frames acquired simultaneously with 7T MRI scanner using a compatible PET-insert or consecutively using an Inveon-PET scanner (Inveon Dedicated PET, Siemens Healthineers, Knoxville, TN, USA). MR images were acquired using a mouse body quadrature volume RF-resonator with an inner diameter of 40 mm (MT0205, Bruker) on a 7 T Preclinical MR scanner (BioSpec 70/30, Bruker BioSpin MRI GmbH, Ettlingen, DE). During the acquisition, we monitored the breathing with an MR-compatible breathing sensor. The body temperature was maintained at 37 °C using a water-based warming pad.
In vivo MR measurement started with the acquisition of a rapid acquisition with relaxation enhancement (RARE) turbo-spin-echo (TSE) sequence with a large field of view to perform whole-body imaging with the following MR parameters: fat suppression module, repetition time (TR)/echo time (TE)=800/30.8 ms, respectively, field of view (FoV)=64×32×23 mm^3, matrix size 256×128, one average, bandwidth (BW)=75 kHz, RARE Factor (RF)=16 and an isotropic resolution of 0.25 mm. Then, we acquired consecutive RF-spoiled and slab selective gradient-echo (GRE) pulse sequences with short TR and keeping at the minimum the TE and using the following MR parameters: TR/TE=10/1.9 ms, FoV=34×34×17 mm^3, matrix size 128×128, two averages, BW=75 kHz, Sharpness=7 and approximatively 3 min of acquisition time per scan. Quantification of T1 was calculated by the acquisition of either two flip angles (4°, 22°), 0.27×0.27 mm^2 of in-plane resolution and 0.53 mm of slice thickness, or three flip angles (4°, 14°, 27°) with an isotropic resolution of 0.27 mm as described in Table 1.
The volume of interest (VOI) for the entire pancreas (Pancreas^Control; Pancreas^RIP1-Tag2) and the detected insulinomas (Insulinomas^RIP1-Tag2) were manually drawn in Inveon Research Workplace (Siemens Heathineers) after co-registration of the PET images. The T1-w images and the T1 maps were as well co-registered and used as anatomical references. The co-registered VOIs were exported and analyzed in MATLAB (R2013b; The MathWorks, Natick, MA, USA) using an in-house script. The percent injected dose per mL (%ID/mL) of the PET tracer was calculated voxel-wise by adjusting the radioactivity units (kBq/mL) for the injected activity and the half-life of ^64Cu (t1/2=12.7 h). On the other hand, the longitudinal relaxation rate (R1=1/T1) was calculated from the respective region drawn on the T1 maps. For the quantification, we considered voxels with R1 values between 0.4 and 10 s^-1. The estimated concentrations of Mn ([Mn]) were also calculated voxel-wise by the subtraction image acquired before and after the injection of MR-contrast agent and using the relaxivity (r1) of MnCl2:Bicine ([Mn]∝∆R1=(R1post-R1pre)/r1), which was calculated separately in a phantom study (Method S1 and Fig. S10). The indexes of [Mn] after 24 h were calculated using the overall mean of R1 obtained before and after 24 h, due to the different anatomical localization of the pancreata. […]

MnCl2:Bicine was tested, and the “[Mn]” value (Table S1, VOI Insulinomas 10-wk, 1 h, n=3/4) was 1.4 ± 0.2 mM×10^-1, the “log10(R1)×10^1” value (Table S1, VOI Insulinomas 10-wk, 1 h, group mean ± SD of medians, n=3/4) was 1.8 ± 0.2 and the “[Mn]” value (Table S1, VOI Insulinomas 10-wk, 24 h, n=3/3) was 0.8 ± 0.2 mM×10^-1. For the same substance, the “log10(R1)×10^1” value (Table S1, VOI Insulinomas 10-wk, 24 h, group mean ± SD of medians, n=3/3) was 0.5 ± 0.5, the “[Mn]” value (Table S1, VOI Insulinomas 13-wk, 1 h, n=3/4) was 0.9 ± 0.4 mM×10^-1 and the “log10(R1)×10^1” value (Table S1, VOI Insulinomas 13-wk, 1 h, group mean ± SD of medians, n=3/4) was 0.6 ± 1.1. The “[Mn]” value (Table S1, VOI Insulinomas 13-wk, 24 h, n=3/3) was 0.3 ± 0.4 mM×10^-1, the “log10(R1)×10^1” value (Table S1, VOI Insulinomas 13-wk, 24 h, group mean ± SD of medians, n=3/3) was 1.6 ± 0.2 and the “[Mn]” value (Table S1, VOI Pancreas Control, 1 h, group mean ± SD, n=3/4) was 1.8 ± 0.2 mM×10^-1. For the same substance, the “log10(R1)×10^1” value (Table S1, VOI Pancreas Control, 1 h, group mean ± SD of medians, n=3/4) was 2.7 ± 0.3, the “[Mn]” value (Table S1, VOI Pancreas Control, 24 h, group mean ± SD, n=3/3) was 0.6 ± 0.2 mM×10^-1 and the “log10(R1)×10^1” value (Table S1, VOI Pancreas Control, 24 h, group mean ± SD of medians, n=3/3) was 1.0 ± 0.8. For the same substance, the “[Mn]” value (Table S1, VOI Pancreas RIP1-Tag2 10-wk, 1 h, n=3/4) was 1.2 ± 0.2 mM×10^-1, the “log10(R1)×10^1” value (Table S1, VOI Pancreas RIP1-Tag2 10-wk, 1 h, group mean ± SD of medians, n=3/4) was 1.5 ± 0.6 and the “[Mn]” value (Table S1, VOI Pancreas RIP1-Tag2 10-wk, 24 h, n=3/3) was 0.4 ± 0.1 mM×10^-1. The “log10(R1)×10^1” value (Table S1, VOI Pancreas RIP1-Tag2 10-wk, 24 h, group mean ± SD of medians, n=3/3) was 0.0 ± 0.2, the “[Mn]” value (Table S1, VOI Pancreas RIP1-Tag2 13-wk, 1 h, n=3/4) was 1.0 ± 0.5 mM×10^-1 and the “log10(R1)×10^1” value (Table S1, VOI Pancreas RIP1-Tag2 13-wk, 1 h, group mean ± SD of medians, n=3/4) was 0.9 ± 1.6. The “[Mn]” value (Table S1, VOI Pancreas RIP1-Tag2 13-wk, 24 h, n=3/3) was 0.5 ± 0.4 mM×10^-1, the “log10(R1)×10^1” value (Table S1, VOI Pancreas RIP1-Tag2 13-wk, 24 h, group mean ± SD of medians, n=3/3) was 0.1 ± 0.3 and the “log10(R1)×10^1” value (VOI Insulinomas RIP1-Tag2 10-15 wk pooled, 1 h after i.v. 75 µmol/kg, mean ± SD) was 1.2 ± 1.2. The “log10(R1)×10^1” value (VOI Insulinomas RIP1-Tag2 10-15 wk pooled, 24 h after i.v. 75 µmol/kg, mean ± SD) was 0.4 ± 0.5, the “log10(R1)×10^1” value (VOI Pancreas Control, 1 h after i.v. 75 µmol/kg, 7 T, three flip angles, R1=1/T1, mean ± SD, n=3) was 3.0 ± 0.7 and the “log10(R1)×10^1” value (VOI Pancreas Control, 24 h after i.v. 75 µmol/kg, 7 T, three flip angles, mean ± SD, n=6) was 0.1 ± 0.6. The “log10(R1)×10^1” value (VOI Pancreas RIP1-Tag2 10-15 wk pooled, 1 h after i.v. 75 µmol/kg, mean ± SD, n=7) was 1.2 ± 1.1, the “log10(R1)×10^1” value (VOI Pancreas RIP1-Tag2 10-15 wk pooled, 24 h after i.v. 75 µmol/kg, mean ± SD, n=13) was -0.1 ± 0.4 and the “[Mn] estimated in vivo, times lower in detected insulinomas than in pancreas of control mice” value (early time points (1 h)) was ~2 times.
